Results taken from paper PMC5131364, “Pharmacologic modulation of RORγt translates to efficacy in preclinical and translational models of psoriasis and inflammatory arthritis” (Scientific Reports, 2016).

Experiments:
human CCR6+ T cells = assay: Human CCR6+ cells under Th1 differentiation condition; assay type: cell-based; conditions: Th1 polarization conditions
Method: Mouse CD4+ T cell in vitro Th1 differentiation
Total CD4+ T cells were isolated from splenocytes of C57/BL6 mice (Chareles River Labrotory) using a CD4+ T cell isolation kit (Miltenyl Biotec, Auburn, CA), following the manufacturer’s instructions. Cells were resuspended in culture medium (described in Method section of Th17 differentiation) and were added to 96‐well plates at 2x10^5 per well. Titrated JNJ‐54271074 was added to each well at final DMSO concentration of 0.2%. Cells were incubated for 1 hour, after which Th1 cell differentiation medium was added with final concentrations of 1 µg/ml anti‐CD3, 5 µg/mL anti‐CD28 (BD Pharmingen, San Diego, CA), 10 µg/ml anti‐IL4, 10 ng/mL IL‐12, (R&D Systems, Minneapolis, MN). Cells were cultured at 37 °C and 5% CO2 for 3 days. Supernatants were collected and the accumulated cytokines in culture were measured by ELISA kits (R&D Systems, Minneapolis, MN) following manufacturers' instructions.
IL‐23 induced IL‐17A and IL‐22 production in mouse splenocytes splenocytes were isolated from C57/BL6 mice and resuspended in medium and cultured in 96‐well plates at […] per 100 µL per well. Titrated JNJ‐54271074 in DMSO were added into each well and cells were incubated for 1 hour, then medium containing IL‐23 and IL‐2 (R&D systems) was added to each well at final concentration of 1 ng/mL and 10 U/ml, respectively. Cells were cultured at 37 °C and 5% CO2 for 4 days. Supernatants were collected and the accumulated cytokines in culture were measured by ELISA according to the manufacturer’s instructions (IL‐17A kit from R&D systems, and IL‐22 from Biolegend San Diego).
Human CCR6+ cells in vitro culture without activation or under Th1 differentiation condition Human CCR6+ cells were isolated as described in Method. For experiment without activation, cells were cultured with recombinant IL‐7 (R&D) at final concentration of 10 ng/ml in the presence of 1 µM JNJ‐ 54271074 for 4 days before intracellular staining. […]

[1] = test system: human iTreg cells co-cultured with responder CD4+ T cells; assay: Human inducible regulatory T cells suppressive function; assay type: cell-based; conditions: iTreg generated in presence of 1 μM, CFSE
Method: 37 °C and 5% CO2 for 6 days. Cells were used for flow cytometry analysis of FOXP3+CD4+ T cells and RNA isolation to determine FOXP3 expression. The probe sets were purchased form Life technologies, FOXP3 […]
Human inducible regulatory T cells generation and suppressive function
To generate inducible regulatory T cells, naïve CD4 T cells was purified from PBMCs using naive CD4+ T cell isolation kit II, human (Miltenyi) and stimulated with anti‐CD3/anti‐CD28 antibodies plus IL‐2 and TGF‐β (10 ng/ml each, R&D system) in the presence or absence of 1µM JNJ‐54271074 . After 6‐7 days T cells were washed and Foxp3 expression was evaluated by FACS. […] After 4 days CFSE dilution was evaluated by FACS as an indication of responder T cell’s proliferation.
Supplementary Figure 1. […] Accumulated IL‐ 17A or IFNγ  was measured by ELISA.
Supplementary Figure 2. […] Total splenocytes were cultured with IL‐23 and IL‐2 in the presence of titrated JNJ‐54271074 for 4 days, and supernatants were measured for IL‐17A and IL‐22 by ELISA. IC50 was determined using Prism Graphpad.
Supplementary Figure 3. […] Cells were analyzed by flow cytometry for 17A+ and IL‐ 17A+/22+ population (A). […] Cells from DMSO or 1 µM JNJ‐54271074 treated wells were analyzed by flow cytometry for IFNγ+ and IL‐17A+ population (B) and IFNγ level in supernatants was […]

Question: Which “accumulated IFNγ production” value (human CCR6+ T cells) does the source give for `COc1nc2ccc([C@@](O)(c3ccc(C)nc3C)c3cnnn3C)cc2c(Cl)c1Cc1ccc(C(F)(F)F)cc1` [JNJ-54271074] here?
Answer: Its value is “minimal effect”.

Question: What about the “IFNγ+ cells” value (human CCR6+ T cells; 1 μM) of the same molecule?
Answer: Its value is “slightly increased”.

Question: What about the “IL-17A+/IFNγ+ and IL-17A+ cells” value (human CCR6+ T cells; 1 μM) of the same molecule?
Answer: The value was “decreased”.

Question: And the “Treg suppressive activity on T cell proliferation” value [1]?
Answer: Its value is “not affected”.
